US10941382B2, “Platelet production promoter and method of producing platelets using same” (Kyoto University, priority 2016, dated 2021)

What was measured:
[1] = test system: reporter immortalized megakaryocyte cell line (MKCL#12-23 cre2); assay: VENUS fluorescence intensity of reporter immortalized megakaryocyte cell line cultured with inhibitor; assay type: cell-based, human; details: 7th day of culture; 96-well dish; medium with 10 μM Y-27632, 50 ng/mL TPO, 50 ng/mL SCF; versus 0.1% DMSO negative control
Experimental: The platelet production-promoting effect of a Wnt inhibitor and FLT3 inhibitor was then investigated. The aforementioned reporter immortalized megakaryocyte cell line (MKCL#12-23 cre2) was cultured in a 96-well dish on a differentiation medium supplemented with the particular inhibitor at a prescribed concentration, 10 μM Y-27632, 50 ng/mL TPO, and 50 ng/mL SCF, or on a differentiation medium supplemented with 0.75 μM SR1, 10 μM Y-27632, 50 ng/mL TPO, and 50 ng/mL SCF (positive control), or on a differentiation medium supplemented with 0.1% DMSO, 10 μM Y-27632, 50 ng/mL TPO, and 50 ng/mL SCF (negative control). When the VENUS fluorescence intensity was measured on the cells on the 7th day of culture, the fluorescence intensity was increased for media to which the Wnt inhibitor or FLT3 inhibitor had been added. The results of calculation of the relative fluorescence intensity are given in FIG. 3, where the platelet count for use of the particular inhibitor was corrected with the platelet count for the positive control (made 100%) and the platelet count for the negative control (made 0%).

[2] = test system: MKCL SeV2; assay: Relative number of platelets by FACS (anti-CD41/anti-CD42b) from immortalized megakaryocyte line cultured with inhibitor; assay type: cell-based, human; details: 7th day of cultivation; 6-well dish; medium with 10 μM Y-27632, 50 ng/mL TPO, 50 ng/mL SCF; conclusion from FIG. 3 and FIG. 4 results
Experimental: The platelet production-promoting effect of the Wnt inhibitor and FLT3 inhibitor was then investigated. MKCL SeV2, on which the aforementioned reporter immortalized megakaryocyte cell line (MKCL#12-23 cre2) was based, was cultured in a 6-well dish on a differentiation medium supplemented with the Wnt or FLT3 inhibitor, 10 μM Y-27632, 50 ng/mL TPO, and 50 ng/mL SCF, or on a differentiation medium supplemented with 0.75 μM SR1, 10 μM Y-27632, 50 ng/mL TPO, and 50 ng/mL SCF (positive control), or on a differentiation medium supplemented with 0.1% DMSO, 10 μM Y-27632, 50 ng/mL TPO, and 50 ng/mL SCF (negative control). On the 7th day of cultivation, the culture medium was suspended and the supernatant was recovered; staining with anti-CD41 antibody and anti-CD42b antibody was performed; and FACS analysis was carried out. The relative number of platelets was calculated with correction of the platelet count for use of the particular inhibitor with the platelet count for the positive control (made 100%) and the platelet count for the negative control (made 0%) (FIG. 4).

[3] = test system: iPS cells (TkDA3-4); assay: Platelet production from iPS cell-derived cells under nonuse of feeder cells, FACS (anti-CD41/anti-CD42b); assay type: cell-based; details: 10 days of culture, 1 μM C59 or 3.3 μM FLT3 inhibitor versus 0.75 μM SR1, heparin, Y-27632, TPO, SCF
Experimental: iPS cells (TkDA3-4) were cultured and a colony was detached using a cell scraper and was cultured on a differentiation medium supplemented with […] VEGF. After 14 days, the cells were recovered using a cell scraper and 25 U/mL heparin, 10 μM Y-27632, 100 ng/mL TPO, and 50 ng/mL SCF were added. 0.1% DMSO, 0.75 μM SR1, 1 μM C59 (Calbiochem), or 3.3 μM FLT3 inhibitor (Santa Cruz Biotechnology) was also added to this culture medium and culture was carried out for 10 days. This was also carried out under the condition of the use of feeder cells as described above. The obtained cells were suspended and the supernatant was recovered; staining with anti-CD41 antibody and anti-CD42b antibody was performed; and FACS analysis was carried out (FIG. 4).

| Compound | VENUS fluorescence intensity [1] | platelet production-promoting effect (platelet inducer) [2] | platelet production capacity compared with SR1 [3] |
| --- | --- | --- | --- |
| Cc1cc(-c2ccc(CC(=O)Nc3ccc(-c4cccnc4)cc3)cc2)ccn1 [C59, 4-(2-methyl-4-pyridinyl)-N-[4-(3-pyridinyl)phenyl]benzeneacetamide] | increased | strong platelet inducers | same as or greater |
| COc1ccc(C(=O)Nc2sc3c(c2C(N)=O)CCCC3)cc1OC [FLT3 inhibitor, 2-[(3,4-dimethoxybenzoyl)amino]-4,5,6,7-tetrahydrobenzo[b]thiophene-3-carboxamide] | increased | strong platelet inducers | same as or greater |
